In patent US11377441B2, “Covalent inhibitors of KRAS” (Araxes Pharma LLC, priority 2017, dated 2022):

Molecular target: T1, KRAS G12C 1-169, his-tagged protein, GDP-loaded (Homo sapiens, UniProt P01116, G12C)
T1 construct: KRAS G12C 1-169, his-tagged protein, GDP-loaded
Assay: Biochemical assay: covalent modification of KRAS G12C measured by mass spectrometry (RapidFire/TOF or Q-Exactive)
Format: binding
Settings: for Binding %: covalent binding to (modification of) KRAS G12C after a ten minute incubation period
How it was run: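 Intact-mass readout (TOF or Q-Exactive, charge-envelope deconvolution) gives percent covalent adduct from modified and unmodified species. Compound at 10, 30 or 100 μM was incubated at room temperature for 10 min to 24 h with 2 μM or 0.5 μM GDP-bound KRAS G12C 1-169 in Hepes/NaCl/MgCl2 buffer, then acid-quenched.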

| SMILES | Binding % | binding activity (Example 14 comparative biochemical data, tested according to the above procedures (Example 1)) [%] |
| --- | --- | --- |
| [2H]C([2H])([2H])N(C1CN(c2nc(N3C[C@@H](C)N(C(=O)C=C)C[C@@H]3C)c3cc(Cl)c(-c4c(C)ccc5[nH]nc(C)c45)c(F)c3n2)C1)C([2H])([2H])[2H] (atropisomer, axis not shown) [Compound 222, 1-((2R,5S)-4-((S)-6-chloro-7-(3,5-dimethyl-1H-indazol-4-yl)-2-(3-(di-perdeuteromethylamino)azetidin-1-yl)-8-fluoroquinazolin-4-yl)-2,5-dimethylpiperazin-1-yl)prop-2-en-1-one] | + (+ indicates binding activity greater than 0% and up to 50%) | – |
| C=CC(=O)N1CCN(c2nc(OC[C@@H]3CCCN3C)nc3c(F)c(-c4c(C)ccc5cn[nH]c45)c(Cl)cc23)CC1CC#N (stereo partly drawn) [Compound 268, 2-(1-acryloyl-4-(6-chloro-8-fluoro-7-(6-methyl-1H-indazol-7-yl)-2-(((S)-1-methylpyrrolidin-2-yl)methoxy)quinazolin-4-yl)piperazin-2-yl)acetonitrile] | +++ (+++ indicates binding activity greater than 80%) | – |
| C=CC(=O)N1C[C@H](C)N(c2nc(N3CC(N(C)C)C3)nc3c(F)c(-c4c(C)ccc5[nH]ncc45)c(Cl)cc23)C[C@H]1C (atropisomer, axis not shown) [reference compound] | – | 71 |
| C=CC(=O)N1C[C@H](C)N(c2nc(OCCN3CC[C@@H](OC)C3)nc3c(F)c(-c4c(C)ccc5[nH]nc(N)c45)c(Cl)cc23)C[C@H]1C [Compound 100, 1-((2R,5S)-4-(7-(3-amino-5-methyl-1H-indazol-4-yl)-6-chloro-8-fluoro-2-(2-((R)-3-methoxypyrrolidin-1-yl)ethoxy)quinazolin-4-yl)-2,5-dimethylpiperazin-1-yl)prop-2-en-1-one] | +++ (+++ indicates binding activity greater than 80%) | – |
| C=CC(=O)N1C[C@H](C)N(c2nc(N3CC(N(C)C)C3)nc3c(F)c(-c4c(C)ccc5[nH]nc(C)c45)c(Cl)cc23)C[C@H]1C [Compound 107, 1-((2R,5S)-4-(6-chloro-7-(3,5-dimethyl-1H-indazol-4-yl)-2-(3-(dimethylamino)azetidin-1-yl)-8-fluoroquinazolin-4-yl)-2,5-dimethylpiperazin-1-yl)prop-2-en-1-one] | + (+ indicates binding activity greater than 0% and up to 50%) | – |
| C=CC(=O)N1C[C@H](C)N(c2nc(OCCN3CCC(F)CC3)nc3c(F)c(-c4c(C)ccc5[nH]nc(N)c45)c(Cl)cc23)C[C@H]1C [Compound 70, 1-((2R,5S)-4-(7-(3-amino-5-methyl-1H-indazol-4-yl)-6-chloro-8-fluoro-2-(2-(4-fluoropiperidin-1-yl)ethoxy)quinazolin-4-yl)-2,5-dimethylpiperazin-1-yl)prop-2-en-1-one] | +++ (+++ indicates binding activity greater than 80%) | – |
| C=CC(=O)N1C[C@H](C)N(c2nc(OC[C@H]3CCN(C)C3)nc3c(F)c(-c4c(C)ccc5cnn(C6CC6)c45)c(Cl)cc23)C[C@H]1C [Compound 198, 1-((2R,5S)-4-(6-chloro-7-(1-cyclopropyl-6-methyl-1H-indazol-7-yl)-8-fluoro-2-(((S)-1-methylpyrrolidin-3-yl)methoxy)quinazolin-4-yl)-2,5-dimethylpiperazin-1-yl)prop-2-en-1-one] | ++ (++ indicates binding activity from 50 to 80%) | – |
| C=CC(=O)N1C[C@H](C)N(c2nc(OCCN(CC)CC)nc3c(F)c(-c4c(C)ccc5[nH]nc(N)c45)c(Cl)cc23)C[C@H]1C [Compound 78, 1-((2R,5S)-4-(7-(3-amino-5-methyl-1H-indazol-4-yl)-6-chloro-2-(2-(diethylamino)ethoxy)-8-fluoroquinazolin-4-yl)-2,5-dimethylpiperazin-1-yl)prop-2-en-1-one] | +++ (+++ indicates binding activity greater than 80%) | – |
| C=CC(=O)N1C[C@H](C)N(c2nc(N3CC(N(C)C)C3)nc3c(F)c(-c4c(C)ccc5[nH]nc(C)c45)c(Cl)cc23)C[C@H]1C (atropisomer, axis not shown) [Compound 97, 1-((2R,5S)-4-((S)-6-chloro-7-(3,5-dimethyl-1H-indazol-4-yl)-2-(3-(dimethylamino)azetidin-1-yl)-8-fluoroquinazolin-4-yl)-2,5-dimethylpiperazin-1-yl)prop-2-en-1-one] | + (+ indicates binding activity greater than 0% and up to 50%) | – |
| C=CC(=O)N1C[C@H](C)N(c2nc(OC[C@@H]3CN(C)CCO3)nc3c(F)c(-c4c(C)ccc5[nH]nc(C6CC6)c45)c(Cl)cc23)C[C@H]1C [Compound 187, 1-((2R,5S)-4-(6-chloro-7-(3-cyclopropyl-5-methyl-1H-indazol-4-yl)-8-fluoro-2-(((S)-4-methylmorpholin-2-yl)methoxy)quinazolin-4-yl)-2,5-dimethylpiperazin-1-yl)prop-2-en-1-one] | +++ (+++ indicates binding activity greater than 80%) | – |
| C=CC(=O)N1C[C@H](C)N(c2nc(OCCCN(CC)CC)nc3c(F)c(-c4c(C)ccc5[nH]nc(N)c45)c(Cl)cc23)C[C@H]1C [Compound 69, 1-((2R,5S)-4-(7-(3-amino-5-methyl-1H-indazol-4-yl)-6-chloro-2-(3-(diethylamino)propoxy)-8-fluoroquinazolin-4-yl)-2,5-dimethylpiperazin-1-yl)prop-2-en-1-one] | +++ (+++ indicates binding activity greater than 80%) | – |
| C=CC(=O)N1C[C@H](C)N(c2nc(OCCN3CCCC3)nc3c(F)c(-c4c(C)ccc5[nH]nc(N)c45)c(Cl)cc23)C[C@H]1C [Compound 49, 1-((2R,5S)-4-(7-(3-amino-5-methyl-1H-indazol-4-yl)-6-chloro-8-fluoro-2-(2-(pyrrolidin-1-yl)ethoxy)quinazolin-4-yl)-2,5-dimethylpiperazin-1-yl)prop-2-en-1-one] | +++ (+++ indicates binding activity greater than 80%) | – |
| C=CC(=O)N1C[C@@H](C)N(c2nc(N3CC(N(C)C)C3)nc3c(F)c(-c4c(C)ccc5cnn(C)c45)c(Cl)cc23)C[C@@H]1C (atropisomer, axis not shown) [Compound 245, 1-((2S,5R)-4-((S)-6-chloro-7-(1,6-dimethyl-1H-indazol-7-yl)-2-(3-(dimethylamino)azetidin-1-yl)-8-fluoroquinazolin-4-yl)-2,5-dimethylpiperazin-1-yl)prop-2-en-1-one] | + (+ indicates binding activity greater than 0% and up to 50%) | – |
| C=CC(=O)N1C[C@H](C)N(c2nc(OCCN3CC(F)(F)C3)nc3c(F)c(-c4c(C)ccc5cnn(C)c45)c(Cl)cc23)C[C@H]1C (atropisomer, axis not shown) [Compound 147, 1-((2R,5S)-4-((R)-6-chloro-2-(2-(3,3-difluoroazetidin-1-yl)ethoxy)-7-(1,6-dimethyl-1H-indazol-7-yl)-8-fluoroquinazolin-4-yl)-2,5-dimethylpiperazin-1-yl)prop-2-en-1-one] | +++ (+++ indicates binding activity greater than 80%) | – |
| C=CC(=O)N1[C@H](C)CN(c2nc(N3CC(N(C)C)C3)nc3c(F)c(-c4c(C)ccc5[nH]nc(C)c45)c(Cl)cc23)C[C@@H]1C (atropisomer, axis not shown) [Compound 151, 1-((2S,6R)-4-((S)-6-chloro-7-(3,5-dimethyl-1H-indazol-4-yl)-2-(3-(dimethylamino)azetidin-1-yl)-8-fluoroquinazolin-4-yl)-2,6-dimethylpiperazin-1-yl)prop-2-en-1-one] | + (+ indicates binding activity greater than 0% and up to 50%) | – |
| C=CC(=O)N1C[C@H](C)N(c2nc(N3CC(NC)C3)nc3c(F)c(-c4c(C)ccc5cnn(C)c45)c(Cl)cc23)C[C@H]1C (atropisomer, axis not shown) [Compound 206, 1-((2R,5S)-4-((R)-6-chloro-7-(1,6-dimethyl-1H-indazol-7-yl)-8-fluoro-2-(3-(methylamino)azetidin-1-yl)quinazolin-4-yl)-2,5-dimethylpiperazin-1-yl)prop-2-en-1-one] | +++ (+++ indicates binding activity greater than 80%) | – |
| C=CC(=O)N1C[C@H](C)N(c2nc(N3CC(N(C)C)C3)nc3c(F)c(-c4c(F)ccc5cnn(C)c45)c(Cl)cc23)C[C@H]1C (atropisomer, axis not shown) [Compound 156, 1-((2R,5S)-4-((S)-6-chloro-2-(3-(dimethylamino)azetidin-1-yl)-8-fluoro-7-(6-fluoro-1-methyl-1H-indazol-7-yl)quinazolin-4-yl)-2,5-dimethylpiperazin-1-yl)prop-2-en-1-one] | +++ (+++ indicates binding activity greater than 80%) | – |
| [2H]C([2H])([2H])N(C1CN(c2nc(N3C[C@@H](C)N(C(=O)C=C)C[C@@H]3C)c3cc(Cl)c(-c4c(C)ccc5cnn(C)c45)c(F)c3n2)C1)C([2H])([2H])[2H] (atropisomer, axis not shown) [Compound 211, 1-((2R,5S)-4-((S)-6-chloro-7-(1,6-dimethyl-1H-indazol-7-yl)-2-(3-(di-perdeuteromethylamino)azetidin-1-yl)-8-fluoroquinazolin-4-yl)-2,5-dimethylpiperazin-1-yl)prop-2-en-1-one] | + (+ indicates binding activity greater than 0% and up to 50%) | – |
| C=CC(=O)N1C[C@H](C)N(c2nc(OC[C@@H]3CCCN3C)nc3c(F)c(-c4c(C)ccc5cnn(C)c45)c(Cl)cc23)C[C@H]1C (atropisomer, axis not shown) [Compound 235, 1-((2R,5S)-4-((R)-6-chloro-7-(1,6-dimethyl-1H-indazol-7-yl)-8-fluoro-2-(((S)-1-methylpyrrolidin-2-yl)methoxy)quinazolin-4-yl)-2,5-dimethylpiperazin-1-yl)prop-2-en-1-one] | +++ (+++ indicates binding activity greater than 80%) | – |
